We go through ten compounds from publication PMC6780165, “Verruculosins A–B, New Oligophenalenone Dimers from the Soft Coral-Derived Fungus Talaromyces verruculosus” (Marine Drugs, 2019).

The target in one series is EGFR tyrosine kinase (Homo sapiens, UniProt P00533). In words: EGFR tyrosine kinase inhibitory activity (ELISA). Format: biochemical. To be noted: poly(Glu, Tyr)4:1 substrate, 10 μM ATP, 60 min at 37 °C, read-out: Anti-EGFR IC50 (µM) ± SD.
The target in the next series is T1, CDC25B (Homo sapiens, UniProt P30305).
T1 sequence (P30305 1-580): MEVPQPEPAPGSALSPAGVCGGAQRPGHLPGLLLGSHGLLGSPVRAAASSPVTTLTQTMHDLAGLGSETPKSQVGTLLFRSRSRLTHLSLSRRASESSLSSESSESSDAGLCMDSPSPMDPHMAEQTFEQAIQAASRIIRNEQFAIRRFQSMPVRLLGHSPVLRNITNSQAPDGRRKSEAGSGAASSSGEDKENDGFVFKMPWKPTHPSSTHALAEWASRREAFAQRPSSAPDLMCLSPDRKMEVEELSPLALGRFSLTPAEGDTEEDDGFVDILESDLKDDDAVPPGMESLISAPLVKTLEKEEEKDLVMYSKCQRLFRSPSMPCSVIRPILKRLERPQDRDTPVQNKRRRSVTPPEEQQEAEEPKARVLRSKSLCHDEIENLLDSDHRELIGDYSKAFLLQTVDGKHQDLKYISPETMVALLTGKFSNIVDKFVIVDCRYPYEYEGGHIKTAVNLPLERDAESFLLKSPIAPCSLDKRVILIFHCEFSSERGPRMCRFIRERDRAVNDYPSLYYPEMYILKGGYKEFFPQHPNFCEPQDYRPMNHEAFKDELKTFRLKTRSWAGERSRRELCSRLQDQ
Nature of the series: CDC25B enzymatic activity assay (OMFP dephosphorylation). Format: biochemical. Conditions: OMFP substrate 10 μM, 100 nM CDC25B, 30 °C, pH 8.0; read-out: Anti-CDC25B IC50 (µM) ± SD. Here is the method:
The enzymatic activity of the CDC25B was determined at 30 °C by monitoring the dephosphorylation of 3-O-methylfluorescein phosphate (OMFP), which was used as a substrate for the CDC25B and can be monitored at a 535 nm emission wavelength and 485 nm excitation wavelength in the EnVisionmultilabel plate reader. The assay was measured in a 100 μL mixture system containing 50 mM Tris-HCl, pH 8.0, 50 mM NaCl, 10 μM OMFP, 100 nM CDC25B, 1 mM dithiothreitol (DTT), 1 mM ethylene diamine tetraacetic acid (EDTA), 1% glycerin, and 2 mg/L compound. The initial rate of the dephosphorylation was determined using the early linear region of the enzymatic reaction kinetic curve. DMSO and Na3VO4 were used as negative and positive controls, respectively.

The subject of series [1] is murine leukemia L-1210 cells. Also on record: method as in ref 5, ref 6. To be noted: cited from earlier work.
Series [2] deals with mitochondrial respiration. Details: method as in PMID 7122988. Conditions: cited from earlier work.
In series [3] the test system is human non-small cell lung carcinoma (NCL-H460) cells. Details: method as in ref 8, ref 9. Conditions: cited from earlier work.
Series [4] relates to human breast cancer (MCF-7) cells. Also on record: method as in ref 8, ref 9. To be noted: cited from earlier work.
The subject of series [5] is human cervical cancer (Hela) cells. Also on record: method as in ref 8, ref 9. Conditions: cited from earlier work.

Chain of EGFR tyrosine kinase (P00533 25-1210): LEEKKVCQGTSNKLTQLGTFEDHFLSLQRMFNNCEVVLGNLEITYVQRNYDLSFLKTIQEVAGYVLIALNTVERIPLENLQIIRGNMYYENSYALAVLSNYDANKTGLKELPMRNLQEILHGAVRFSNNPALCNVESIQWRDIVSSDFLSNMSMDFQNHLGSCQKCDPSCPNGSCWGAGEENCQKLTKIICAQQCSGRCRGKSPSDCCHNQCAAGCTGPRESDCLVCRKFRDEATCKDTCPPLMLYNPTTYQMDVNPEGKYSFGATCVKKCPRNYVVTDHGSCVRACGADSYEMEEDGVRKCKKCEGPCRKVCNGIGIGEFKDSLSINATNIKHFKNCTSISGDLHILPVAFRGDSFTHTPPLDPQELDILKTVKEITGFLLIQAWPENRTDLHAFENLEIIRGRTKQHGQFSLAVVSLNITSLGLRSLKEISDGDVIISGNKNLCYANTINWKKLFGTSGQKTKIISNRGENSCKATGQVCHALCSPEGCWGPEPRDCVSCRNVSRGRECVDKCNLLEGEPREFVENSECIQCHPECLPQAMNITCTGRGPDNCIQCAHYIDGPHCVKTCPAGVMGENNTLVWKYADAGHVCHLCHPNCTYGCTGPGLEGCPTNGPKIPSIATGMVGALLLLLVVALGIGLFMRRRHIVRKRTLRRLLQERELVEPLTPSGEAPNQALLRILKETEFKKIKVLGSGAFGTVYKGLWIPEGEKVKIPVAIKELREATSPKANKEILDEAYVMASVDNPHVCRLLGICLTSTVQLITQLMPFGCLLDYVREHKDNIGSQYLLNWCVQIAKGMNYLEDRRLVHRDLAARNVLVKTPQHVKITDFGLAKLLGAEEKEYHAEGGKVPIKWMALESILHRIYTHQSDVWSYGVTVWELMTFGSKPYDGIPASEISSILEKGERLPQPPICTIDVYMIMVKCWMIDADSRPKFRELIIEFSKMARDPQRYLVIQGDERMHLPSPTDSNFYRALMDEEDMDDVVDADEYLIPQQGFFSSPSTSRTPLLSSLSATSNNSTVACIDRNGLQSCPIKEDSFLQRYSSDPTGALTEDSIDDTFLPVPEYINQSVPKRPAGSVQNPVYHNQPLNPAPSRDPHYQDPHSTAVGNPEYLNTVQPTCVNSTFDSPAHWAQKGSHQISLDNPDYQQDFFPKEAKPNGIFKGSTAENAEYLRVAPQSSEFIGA
Protocol for EGFR tyrosine kinase: The EGFR tyrosine kinase inhibitory activity was tested using enzyme-linked immunosorbent assay (ELISA). The compounds were dissolved in dimethyl sulfoxide (DMSO) buffer solution and were then distributed to a 96-well plate pre-coated with poly(Glu, Tyr)4:1 as a substrate. Each well was treated with 50 μL of 10 μM ATP solution diluted with reaction buffer and the reaction was started by the addition of EGFR tyrosine kinase. After 60 min of incubation at 37 °C, the plate was washed three times with phosphate buffered saline containing 0.1% Tween 20 (PBST). Next, antiphosphotyrosine (PY99) antibody 100 μL was added. After incubation for 30 min at 37 °C, the plate was washed three times and goat anti-mouse IgG horseradish peroxidase was added. The plate was reincubated at 37 °C for 30 min and washed as before. Lastly, 100 μL of color development solution was added and the plate was incubated at room temperature until color emerged. The reaction was terminated by adding 50 μL of 2 M H2SO4, and the absorbance was measured on the Molecular Devices SpectraMax 190 microplatereader at 490 nm [20]. The known EGFR inhibitor, afatibib, was utilized as a positive control, and 0.1% (v/v) DMSO was used as a negative control.

For `COC12c3c(C)cc(O)c4c3C3=C(OC(C)(O)CC3OC4=O)C1C13COC(=O)c4c(O)cc(C)c(c41)C(=O)C2C3OC(C)=O` (centres unmarked) [Compound 1, verruculosin A], the IC50 at EGFR tyrosine kinase stood at 0.92 ± 0.25 µM; at CDC25B, 0.38 ± 0.03 µM.
Consider `COC(=O)CC1OC(=O)c2c(O)cc(C)c3c2C1=C(O)C1C24COC(=O)c5c(O)cc(C)c(c52)C(=O)C(C4OC(C)=O)C31OC` (centres unmarked) [Compound 2, verruculosin B], for which, at EGFR tyrosine kinase, the IC50 came to 1.22 ± 0.53 µM.
Regarding `COC1OC(=O)c2c(O)cc(C)c3c4c(c(O)c1c23)C12COC(=O)c3c(O)cc(C)c(c31)C(=O)C4C2OC(C)=O` (centres unmarked) [Compound 3, bacillisporin F], the IC50 on EGFR tyrosine kinase was determined as 4.41 ± 2.32 µM; at CDC25B it was 0.4 ± 0.02 µM.
For the compound `COC12c3c(C)cc(O)c4c(=O)occ(c34)C(=O)C1C13COC(=O)c4c(O)cc(C)c(c41)C(=O)C2C3OC(C)=O` (centres unmarked) [Compound 4, duclauxin], the half-inhibitory concentration (IC50) is 0.95 ± 0.64 µM on EGFR tyrosine kinase and 0.75 ± 0.18 µM on CDC25B. For the same compound, the “activity against murine leukemia L-1210 cells (in words)” value in series [1] was “highly active”. Moreover, the “inhibitory effects on mitochondrial respiration (in words)” value in series [2] is “strong inhibitory effects”.
Consider `CC(=O)OC1C2C(=O)c3c(C)cc(O)c4c3C1(COC4=O)c1c(O)c3c4c(c(O)cc(C)c4c12)C(=O)OC3=O` (centres unmarked) [Compound 5, xenoclauxin], for which the IC50 at EGFR tyrosine kinase amounted to 0.24 ± 0.17 µM; at CDC25B, 0.26 ± 0.06 µM.
In the case of `[Na+].[Na+].[Na+].[O]=[V]([O-])([O-])[O-]` [Na3VO4, reference compound], the IC50 on CDC25B came to 0.52 ± 0.02 µM.
Turning to Bascillosporin A, the “cytotoxicity against NCL-H460 cells (in words)” value in series [3] is listed as “high cytotoxicity”. Besides, in series [4], the “cytotoxicity against MCF-7 cells (in words)” value was “high cytotoxicity”.
Bascillosporin B [Bascillosporins B]: the “cytotoxicity against NCL-H460 cells (in words)” value in series [3] was “moderately active”. Also, in series [4], the “cytotoxicity against MCF-7 cells (in words)” value is “moderately active”. Moreover, the “activity against Hela cells (in words)” value in series [5] was “moderately active”.
Take Bascillosporin C: the “cytotoxicity against NCL-H460 cells (in words)” value in series [3] is listed as “moderately active”. Also, the “cytotoxicity against MCF-7 cells (in words)” value in series [4] is given as “moderately active”. The “activity against Hela cells (in words)” value in series [5] is given as “moderately active”.
As for Bascillosporin H, in series [3], the “cytotoxicity against NCL-H460 cells (in words)” value was “moderately active”. Besides, the “cytotoxicity against MCF-7 cells (in words)” value in series [4] was “moderately active”. Further, the “activity against Hela cells (in words)” value in series [5] is listed as “moderately active”.
